Experiments:
[1] = Pharmacokinetic experiment in mice, plasma concentrations by LC-MS/MS; type: in vivo, C57Bl/6J mice; conditions: higher doses, oral, compared to psilocybin
Protocol: (§1) In a pharmacokinetic experiment in C57Bl/6J mice (3 animals per timepoint; schedule shown below) two example compounds, Cy1 (4-HO-EPT glycoside) and Cy2 (4-HO-DMT glycoside) were dosed at two different concentrations (20 mg/kg dose shown here) and the parent compounds and their de-glycosylated forms, 4-HO-EPT and psilocin (4-HO-DMT), respectively, were measured by LC-MS/MS in plasma and brain tissue samples. For comparison, psilocybin was dosed at 1.5 mg/kg orally and plasma and brain tissue concentrations of psilocin (4-HO-DMT) were measured. Samples were collected at four or five different timepoints (from 10-minutes post dosing up to 6-hours post dosing) following the test article administration.
(§2) Results are reported in ng/mL for the concentration in plasma and in ng/g tissue for the concentration measured in brain samples.
(§3) Results: The graphs in FIG. 35, FIG. 36, FIG. 37, and FIG. 38 display the time course of concentrations of compounds as indicated. For each time point the data for the individual animals are plotted.

[2] = Pharmacokinetic experiment in mice, brain tissue concentrations by LC-MS/MS; type: in vivo, C57Bl/6J mice; conditions: higher doses, oral, compared to psilocybin
Protocol: as §1, §2, §3

Which results are given for CCCN(CC)CCc1c[nH]c2cccc(O[C@@H]3O[C@H](CO)[C@@H](O)[C@H](O)[C@H]3O)c12 [Cy1, 4-HO-EPT glycoside]?
period of exposure, plasma [1]: extended; period of exposure, brain [2]: extended
